Series [1] has as its target T1, CYP2C9 (Homo sapiens, UniProt P11712).
T1 construct: Mixed human liver microsomes from 150 donors; tissue Corning 452117; host or cells: pooled human liver microsomes (150 donors)
In words: CYP inhibition in mixed human liver microsomes, CYP2C9 (diclofenac sodium). The format is in vitro ADME. The procedure: Mixed human liver microsomes from 150 donors (purchased from Corning, catalog number 452117) were used to evaluate the representative substrate metabolic responses of the five main human CYP subtypes (CYP1A2, CYP2C9, CYP2C19, CYP2D6 and CYP3A4/5). The influence of different concentrations of test compounds on the metabolic responses of phenacetin (CYP1A2), diclofenac sodium (CYP2C9), S-mephenytoin (CYP2C19), bufurolol hydrochloride (2D6) and midazolam (CYP3A4/5) was determined by liquid chromatography tandem mass spectrometry (LC/MS/MS).
200 μL of the reaction system (100 mmol/L phosphate buffer, pH 7.4, containing 0.3% DMSO, 0.6% acetonitrile and 0.1% methanol by volume respectively) with 30 µM phenacetin, 10 μM diclofenac sodium, 35 μM S-mephenytoin, 5 μM bufurolol hydrochloride, 3 μM midazolam, 1 mM NADPH, test compound (at a concentration of 0.1, 0.3, 1, 3, 10 and 30 μmol/L respectively) or positive compound or blank control and mixed human liver microsomes (0.2 mg/mL) was incubated at 37° C. for 5 minutes. […]
The peak area was calculated based on the chromatograms. The residual activity ratio (%) was calculated using the following equation: […]
The CYP median inhibitory concentration (IC50) was calculated by Excel XLfit 5.3.1.3.

Series [2] is described as follows: In vivo pharmacokinetics in rats (gavage). The arrangement: species or system SD rats. Conditions: original drug, rat, 5 mpk. The procedure:
Rats were used as the test animals. The plasma drug concentration at different times after the rats were given the compounds of the invention by gavage was determined by using the LC/MS/MS method. The in vivo pharmacokinetic behavior of the compounds of the present invention in rats was studied, and pharmacokinetic characteristics thereof were evaluated.
Test animals: 3 healthy, 6-8 weeks old male SD rats in each group
A certain amount of drug was weighed, and 0.5% by mass of hypromellose, 0.1% by volume of Tween 80 and 99.4% by volume of water were added thereto to formulate a white suspension at 1 mg/mL.
SD rats were fasted overnight, then the drug was administered by gavage. The dosage of reference 1 was 7.5 mg/kg, and the dosage of Example 1 was 5 mg/kg.
Rats were administered the compounds of the present invention by gavage. At 0.25, 0.5, 1, 2, 4, 8 and 24 hours after administration, 0.2 mL of blood was collected from the jugular vein and placed in a test tube containing EDTA-K2. The tube was centrifuged at 4° C., 4000 rpm for 5 minutes to separate the plasma, which was stored at −75° C.
Determination of the content of the test compounds in rat plasma after administration of different concentrations of drugs by gavage: 50 μL of rat plasma at each time after administration was taken, and 200 μL of a solution of the internal standard dexamethasone in acetonitrile (50 ng/mL). The mixture was mixed by vortexing for 30 seconds, centrifuged at 4° C., 4700 rpm for 15 minutes. The supernatant of the plasma samples were collected and diluted three times with water, and 2.0 μL was taken for the LC/MS/MS analysis.

Series [3] can be described thus: In vitro metabolic stability in rat liver microsomes. It is filed as in vitro ADME. Conditions: rat liver microsomes (male Wistar Han), NADPH, 37° C.; read-out: Intrinsic clearance rate. As to the method:
The concentration of the compound in the reaction system was determined by LC/MS/MS, so as to calculate the intrinsic clearance rate of the test compound and to evaluate the in vitro metabolic stability in rat liver microsomes.
222.5 μL, 1.1236 mg/mL of a mixed solution of rat liver microsomes (male Wistar Han strain, purchased from Corning, catalog number 452511) and 25 μL, 10 mM of NADPH were added into the incubation plate. The mixture was mixed by vortexing for 10 seconds. The plate was incubated in a water bath at 37° C. for 8 minutes. 2.5 μL, 100 μM of the test compound or positive control was added to the incubation plate to start the reaction. The mixture was mixed by vortexing for 12 seconds, and incubated in a water bath at 37° C. The reaction was stopped by transferring 20 μL of the incubation system to a stop plate containing 100 μL of cold stop solution at 0.5, 5, 10, 15, 20 and 30 minutes. The mixture was mixed by vortexing for 2 minutes. The stop plate was centrifuged at 4000 rpm for 20 minutes, then left to stand at 4° C. for 30 minutes, and then centrifuged at 4000 rpm for 20 minutes. 40 μL of the supernatant of each compound was transferred to a 96-well injection plate, and 160 μL of pure water was added to dilute the samples.
The obtained samples were quantified by ion chromatogram, and the residual rate was calculated according to the peak area of the test compounds or positive control. The slope k was determined by linear regression of the natural logarithm of the residual rate to the incubation time by using Microsoft Excel.
The in vitro half-life (in vitro t1/2) was calculated from the slope: in vitro t1/2=−(0.693/k)
The following equation was used to convert in vitro half-life into intrinsic clearance rate (in vitro CLint, μL/min/mg protein):
in vitro CLint=(0.693/t1/2)×(incubation volume (L)/protein amount (mg))
A general note: Liver microsomes are vesicles of endoplasmic reticulum, rich in cytochrome P450 enzymes.

Consider one compound from patent US20220380385A1, “PYRIMIDINE FIVE-MEMBERED NITROGEN HETEROCYCLIC DERIVATIVE, PREPARATION METHOD THEREOF AND PHARMACEUTICAL USE THEREOF” (TUOJIE BIOTECH(SHANGHAI) CO., LTD., priority 2019, published 2022).

T1 sequence (P11712 whole entry): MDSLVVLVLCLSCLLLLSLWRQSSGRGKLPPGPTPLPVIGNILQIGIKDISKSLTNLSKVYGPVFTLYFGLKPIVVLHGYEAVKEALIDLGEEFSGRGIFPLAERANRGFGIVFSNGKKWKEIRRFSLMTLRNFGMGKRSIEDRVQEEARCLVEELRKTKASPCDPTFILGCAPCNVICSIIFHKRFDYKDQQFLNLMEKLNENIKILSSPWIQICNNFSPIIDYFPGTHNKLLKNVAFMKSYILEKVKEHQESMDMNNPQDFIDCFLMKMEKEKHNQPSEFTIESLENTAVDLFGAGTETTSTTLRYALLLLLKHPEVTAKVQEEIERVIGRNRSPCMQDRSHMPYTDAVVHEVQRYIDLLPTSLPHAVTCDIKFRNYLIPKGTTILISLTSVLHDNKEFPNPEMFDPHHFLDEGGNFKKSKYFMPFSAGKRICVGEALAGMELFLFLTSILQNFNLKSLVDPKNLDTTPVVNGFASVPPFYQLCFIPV

Broadly, the IC50 is the concentration that gives 50% inhibition. A lower IC50 goes with greater potency. By AUC is commonly meant the area under the concentration-time curve, a measure of exposure. By Cmax is commonly meant the maximum level reached in the sampled fluid or tissue. As for `[2H]C([2H])([2H])Nc1nccc(Sc2c(C)nc(N3CCC4(CC3)Cc3ncccc3[C@H]4N)n3ccnc23)c1Cl` [Example 3, (S)-1′-(8-((3-Chloro-2-((methyl-d3)amino)pyridin-4-yl)thio)-7-methylimidazo[1,2-c]pyrimidin-5-yl)-5,7-dihydrospiro[cyclopenta[b]pyridine-6,4′-piperidin]-5-amine], in series [1], the 50% inhibitory concentration (IC50) is greater than 20 µM. Moreover, the AUC in series [2] (male, SD, plasma, po, 5 mg/kg, read-out: Area under curve AUC) came to 3820 ng·h/mL. Further, the maximum concentration (Cmax) in series [2] (male, SD, plasma, po, 5 mg/kg, read-out: Maximum blood conc. Cmax) came out at 445 ng/mL. In series [2], the “Area under curve of unit dose AUC/D” value is 764 ng*h/mL per mg/kg. Further, the microsomal CLint at 1 µM in series [3] was less than 3 µL/min/mg.
